Measurements from US9113629B2, “4-amino-6-(4-substituted-phenyl)-picolinates and 6-amino-2-(4-substituted-phenyl)-pyrimidine-4-carboxylates and their use as herbicides” (DOW AGROSCIENCES LLC, priority 2013, dated 2015).
Like-named read-outs stand apart in the source and are kept apart here.

How the values were obtained:
[1] = tested on: Key Grass and Sedge Weeds as well as Grass Crops; test: Post-emergent Test II herbicidal activity (Table 6); type: in vivo; settings: post-emergence, 336 h; for pest or weed control at 70 g/ha: 70 g ai/ha; for pest or weed control at 140 g/ha: 140 g ai/ha
How it was run: (§1)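 Post-emergence foliar spray, 187 L/ha, track sprayer at 43 cm above canopy. Carrier: acetone/water/IPA/DMSO/Atplus 411F/Triton X-155. Plants at 1st–2nd true leaf; subirrigated afterwards; % injury scored visually at 14 d.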

[2] = tested on: Key Broadleaf Weed and Crop Species; test: Post-emergent Test II herbicidal activity (Table 5); type: in vivo; settings: post-emergence, 336 h, 14 days after application; for pest or weed control at 70 g/ha: application rate 70 g ai/ha; for pest or weed control at 140 g/ha: application rate 140 g ai/ha
How it was run: as §1

[3] = CYPES: yellow nutsedge (Cyperus esculentus), read-out: Visual Growth Reduction (%) 14 Days After Application, CYPES
[4] = DIGSA: crabgrass (Digitaria sanguinalis), read-out: Visual Growth Reduction (%) 14 Days After Application, DIGSA
[5] = ECHCG: barnyardgrass (Echinochloa crus-galli), read-out: Visual Growth Reduction (%) 14 Days After Application, ECHCG
[6] = ORYSA: rice (Oryza sativa), crop, read-out: Visual Growth Reduction (%) 14 Days After Application, ORYSA
[7] = SETFA: giant foxtail (Setaria faberi), read-out: Visual Growth Reduction (%) 14 Days After Application, SETFA
[8] = SORVU: grain sorghum (Sorghum vulgare), read-out: Visual Growth Reduction (%) 14 Days After Application, SORVU
[9] = TRZSS (wheat, Triticum aestivum), crop, read-out: Visual Growth Reduction (%) 14 Days After Application, TRZSS
[10] = ZEAMX: maize, corn (Zea mays), crop, read-out: Visual Growth Reduction (%) 14 Days After Application, ZEAMX
[11] = ABUTH: velvetleaf (Abutilon theophrasti), read-out: Visual Growth Reduction (%) 14 Days After Application, ABUTH
[12] = AMARE: redroot pigweed (Amaranthus retroflexus), read-out: Visual Growth Reduction (%) 14 Days After Application, AMARE
[13] = BRSNN: oilseed-rape, canola (Brassica napus), read-out: Visual Growth Reduction (%) 14 Days After Application, BRSNN
[14] = CHEAL: lambsquarters (Chenopodium album), read-out: Visual Growth Reduction (%) 14 Days After Application, CHEAL
[15] = EPHHL: wild poinsettia (Euphorbia heterophylla), read-out: Visual Growth Reduction (%) 14 Days After Application, EPHHL
[16] = HELAN: sunflower (Helianthus annuus), read-out: Visual Growth Reduction (%) 14 Days After Application, HELAN
[17] = VIOTR: wild pansy (Viola tricolor), read-out: Visual Growth Reduction (%) 14 Days After Application, VIOTR

COC(=O)c1nc(-c2ccccc2)nc(N)c1OC [Compound 175]
pest or weed control at 70 g/ha [1, 3]: 0 to 29% | pest or weed control at 140 g/ha [1, 3]: 0 to 29% | pest or weed control at 70 g/ha [1, 4]: 0 to 29% | pest or weed control at 140 g/ha [1, 4]: 0 to 29% | pest or weed control at 70 g/ha [1, 5]: 0 to 29% | pest or weed control at 140 g/ha [1, 5]: 0 to 29% | pest or weed control at 70 g/ha [1, 6]: 0 to 29% | pest or weed control at 140 g/ha [1, 6]: 0 to 29% | pest or weed control at 70 g/ha [1, 7]: 0 to 29% | pest or weed control at 140 g/ha [1, 7]: 0 to 29% | pest or weed control at 70 g/ha [1, 8]: 0 to 29% | pest or weed control at 140 g/ha [1, 8]: 0 to 29% | pest or weed control at 70 g/ha [1, 9]: 0 to 29% | pest or weed control at 140 g/ha [1, 9]: 0 to 29% | pest or weed control at 70 g/ha [1, 10]: 0 to 29% | pest or weed control at 140 g/ha [1, 10]: 0 to 29% | pest or weed control at 70 g/ha [2, 11]: 45 to 59% | pest or weed control at 140 g/ha [2, 11]: 45 to 59% | pest or weed control at 70 g/ha [2, 12]: 45 to 59% | pest or weed control at 140 g/ha [2, 12]: 95 to 100% | pest or weed control at 70 g/ha [2, 13]: 0 to 29% | pest or weed control at 140 g/ha [2, 13]: 0 to 29% | pest or weed control at 70 g/ha [2, 14]: 0 to 29% | pest or weed control at 140 g/ha [2, 14]: 30 to 44% | pest or weed control at 70 g/ha [2, 15]: 85 to 94% | pest or weed control at 140 g/ha [2, 15]: 85 to 94% | pest or weed control at 70 g/ha [2, 16]: 45 to 59% | pest or weed control at 140 g/ha [2, 16]: 60 to 74% | pest or weed control at 70 g/ha [2, 17]: 0 to 29% | pest or weed control at 140 g/ha [2, 17]: 0 to 29% | melting point: 123 to 124 °C
